What was measured:
Assay type in all cases: in vivo
ApoB100 mice = experiment: Hypocholesterolemic effect, oral 28 days, endogenous hyperlipidemia model
Procedure: (§1) All the animals included for the experimental process were 12-week old female mice. The experiments were conducted strictly following the Guidance on the Operation of Animals (Scientific Procedures, Act. 1986). The animals had their respective quarantine period and were treated with maximum precaution to minimize possible contaminations for inoculations and handling.
The control group received this same vehicle. Before starting the treatments and at 7, 21 and 28 days of starting them, retro-orbital blood extractions after fasting for 16 hours were carried out. The plasma was obtained from said blood, in which the total cholesterol (TC), free cholesterol (FC), cholesterol (EC), HDL-c, LDL-c, VLDL-c and apoB100 levels were evaluated by enzymatic and spectrophotometric techniques. In order to check if the effect at the lipid level involved an alteration of the oxidative stress, the redox state in the plasmas obtained was furthermore evaluated by means of the TEAC (Trolox Antioxidant Capacity Assay) technique. This technique determines the antioxidant capacity in vitro, giving an idea of the redox state of the sample analyzed by means of the absorbance capacity by electron transfer. The different components of the reaction, myoglobin, ABTS (2,2-azino-bis-(3-ethylbenzthiazoline-sulfonic acid), […] H2O2 were added to the plasmas diluted 1/10 in PBS (10 μL) in a 96-well plate. After 3 minutes of incubation, the absorbance was measured at 405 nm (with a reference of 600 nm).

[1] = system: FVB/NHan mice inoculated with kainate (KA); experiment: Neuronal death in the hippocampus of mice caused by kainate (hematoxylin-eosin); conditions: 50 mg/kg i.p., 7 days
Procedure: as §1, with “males of the FVB/NHan strain.” for “female mice.”, “handling. […]” for “handling.”

[2] = Lethality by constant exposure in water (4 days) in adult zebrafish (OECD 203); conditions: zebrafish, in vivo; 4 days of continuous treatment in water
Procedure: (§2) The object of this assay is to determine the acute lethal toxicity of a substance on freshwater fish. Acute toxicity is the distinguishable adverse effect induced in an organism as a result of the exposure to a given substance for a short time period (days).
(§3) The deaths of the animals under study during the entire time of the assay were recorded as a toxicity parameter.
(§4) To that end, the fish that survived the treatment were sacrificed at 4 days post-treatment (previously anesthetized) and the samples (whole fish) were included in paraffin. The hematoxylin-eosin staining was subsequently performed in order to conduct the histopathological studies, obtaining a minimum of 6 longitudinal sections per animal, for the purpose of collecting different study areas of the same organ. The following organs were studied: brain, kidney, pancreas, intestine, eye, gills, ovary, testicle, muscle and liver.

adult zebrafish = experiment: as above; conditions: for histopathology: ovary / Mortality (dead animals/total): 4 days
Procedure: as §2, §3, §4

In the case of `CCC(CC)C(=O)O[C@H]1C[C@@H](C)C=C2C=C[C@H](C)[C@H](CC[C@@H]3C[C@@H](O)CC(=O)O3)[C@H]21` [NST0037, (1S,2S,6R,8S,8aR)-1,2,6,7,8,8a-hexahydro-3,7-dimethyl-8-[2-[(2R,4R)-tetrahydro-4-hydroxy-6-oxo-2H-pyran-2-yl]ethyl]-1-naphthalenyl-2-ethyl-butyrate], the “FC and EC levels” value (ApoB100 mice; 50 mg/kg oral, 7, 21 and 28 days) is reported as “reduction of the FC and EC levels”, the HDL (ApoB100 mice; 50 mg/kg oral, 28 days) is reported as “reduction of VLDL and HDL” and the LDL (ApoB100 mice; 50 mg/kg oral, 28 days) is reported as “smaller increase of LDL”. For the same compound, the VLDL (ApoB100 mice; 50 mg/kg oral, 28 days) was “reduction of VLDL”, the “apolipoprotein B (apoB) levels” value (ApoB100 mice; 50 mg/kg oral, 28 days) was “visibly reduced” and the “redox state of the plasmas (TEAC)” value (ApoB100 mice; 50 mg/kg oral, 28 days) was “decrease the redox state”. The “plasma total cholesterol levels” value (ApoB100 mice; 50 mg/kg oral, 28 days, female apoB100 mice) was “significantly reducing the plasma total cholesterol levels”, the “neuronal death in hippocampal CA1 and CA2 regions” value ([1]; NST0037+KA+NST0037 regimen, KA 25 mg/Kg) was “completely protected against neuronal death” and the “neuronal death in hippocampal CA1 and CA2 regions” value ([1]; PBS+KA+NST0037 regimen (treatment after KA)) was “qualitatively reduced neuronal death and damage”. For the same compound, the LD50 at 4 days [2] was > 100 mg/kg, the “histopathology: ovary” value (adult zebrafish; 30 mg/kg) was “not being observed” and the “histopathology: ovary” value (adult zebrafish; 100 mg/Kg) was “presented ovarian damage”. For the same compound, the “Mortality (dead animals/total)” value (adult zebrafish; Dose 1 mg/kg) was 0/7, the “Mortality (dead animals/total)” value (adult zebrafish; Dose 3.2 mg/kg) was 0/7 and the “Mortality (dead animals/total)” value (adult zebrafish; Dose 10 mg/kg) was 0/7. For the same compound, the “Mortality (dead animals/total)” value (adult zebrafish; Dose 32 mg/kg) was 0/7, the “Mortality (dead animals/total)” value (adult zebrafish; Dose 100 mg/kg) was 1/7 and the percentage of mortality (adult zebrafish; day 4 post-treatment (100 mg/kg group)) was 14%.

Source: patent US20140309295A1, “ANTIEPILEPTIC, HYPOCHOLESTEROLEMIC AND NEUROPROTECTIVE COMPOUND” (NEURON BIOPHARMA, S.A., priority 2009, published 2014)
